Columns and labels:
Hct116 = test: XTT assay for anti-proliferative effect; format: cell-based; conditions: Homo sapiens, HCT-116; Hct116 tumour cell line, ~48 h incubation
Experimental: The principle of this test is based on the intracellular reduction of the tetrazolium dye XTT (sodium 3′-[1-(phenylaminocarbonyl)-3,4-tetrazolium]-bis(4-methoxy-6-nitro)benzene sulfonic acid, Sigma) to a formazan dye by mitochondrial dehydrogenases. The dye is only formed by metabolically active cells and its photometrically measurable intensity is a quantitative indicator for the presence of living cells. The reduction of dye formation by incubation of the cells with substances serves as a parameter for the anti-proliferative effect.
The tumour cell lines (ATCC) were injected into 96-well microtitre plates in a defined cell number (1250 cells/well for Hct116) and then incubated overnight in an incubator at 37° C., 5% CO2 and 95% air humidity. The test substances were prepared as stock solutions (10 mM) in DMSO. To determine the EC50 values the potential inhibitor substances were added to the cells in half-logarithmically graded dilutions, resulting in final concentrations of 1.58 nM-50 μM. The cell plates were then incubated for ˜48 h in an incubator at 37° C., 5% CO2 and 95% air humidity.
For the detection reaction the substrate XTT was mixed with PMS (N-Methyl dibenzopyrazine methylsulfate, Sigma) and added to the cells so that a final concentration of 325 μg XTT/ml and 2.5 μg PMS/ml was obtained. It was then incubated for 3 h at 37° C., 95% air humidity. The formazan salt formed by the cellular dehydrogenases could then be quantified by adsorption at 490 nm.
The % inhibition value was evaluated by means of the following formula from the values for the optical densities measured in each case at 490 nm:
Eight determinations were made for each control and two for the substance samples. The 0% control contains no cells, the 100% control (proliferation control) contains no test substance. The EC50 values were determined using GraphPadPrism.

Erk2 = Erk2 (Homo sapiens, UniProt P28482); test: Erk2 alpha kinase assay (cell-free, ALPHA technology); format: biochemical; conditions: 10 μM ATP
Experimental: The inhibitory effect of the compounds according to the invention was tested on various serine/threonine, tyrosine and lipid kinases in enzymatic assays. Recombinant human kinases such as, for example, Erk2, were used in this case, partly as full-length kinases, partly as shortened fragments, but at least consisting of the functional kinase domains. The commercial kinase proteins (Proqinase, Upstate) were used as recombinant fusion proteins with GST (glutathion-S-transferase) or His-Tag. Depending on the type of substrate, the various kinase reactions were quantified by means of suitable ALPHA™ beads (Perkin-Elmer). The substance testing is described in detail hereinafter for the Erk assay. […] a) MAPK-ALPHAs (e.g. […] The fluorescence was detected the following morning in a Envision plate reader (Perkin-Elmer). The %-inhibition values per substance concentration were calculated by means of the following formula from the raw data determined in the Envision plate reader[…]: Eight determinations were made for each control and two for the substance samples. […] The IC50 values were determined using GraphPadPrism.

Erk2, sequence (P28482 2-360 limits assumed): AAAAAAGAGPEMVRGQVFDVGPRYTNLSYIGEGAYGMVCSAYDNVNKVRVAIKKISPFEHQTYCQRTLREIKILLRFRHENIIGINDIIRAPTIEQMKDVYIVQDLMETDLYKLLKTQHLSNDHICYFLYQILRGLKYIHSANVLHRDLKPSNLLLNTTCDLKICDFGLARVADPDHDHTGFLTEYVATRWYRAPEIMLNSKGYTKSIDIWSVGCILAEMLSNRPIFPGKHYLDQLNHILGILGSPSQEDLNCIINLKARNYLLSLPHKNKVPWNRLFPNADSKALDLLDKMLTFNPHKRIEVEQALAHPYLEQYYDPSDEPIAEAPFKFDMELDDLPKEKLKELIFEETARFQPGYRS

## O=C(NCCCCc1ccccc1)Nc1ccc2ncc(-c3cn[nH]c3)nc2n1 [Compound 159, 1-(4-Phenyl-butyl)-3-[3-(1H-pyrazol-4-yl)-pyrido[2,3-b]pyrazin-6-yl]-urea]
Hct116
  EC50: 844 nM
Erk2
  IC50: 1 nM
other
  melting point: 231 to 232 °C

## COc1cc(CO)ccc1-c1cnc2ccc(NC(=O)N[C@H](C)CCCc3ccccc3)nc2n1 [Compound 156, 1-[3-(4-Hydroxymethyl-2-methoxy-phenyl)-pyrido[2,3-b]pyrazin-6-yl]-3-((R)-1-methyl-4-phenyl-butyl)-urea]
Erk2
  IC50: 1 nM
other
  melting point: 168 to 170 °C

## Cn1cc(-c2cnc3ccc(NC(=O)NCCCCc4ccccc4)nc3n2)cn1 [Compound 155, 1-[3-(1-Methyl-1H-pyrazol-4-yl)-pyrido[2,3-b]pyrazin-6-yl]-3-(4-phenyl-butyl)-urea]
Hct116
  EC50: 337 nM
Erk2
  IC50: 4 nM
other
  melting point: 198 to 201 °C

## O=C(NCCCCc1ccccc1)Nc1ccc2ncc(-c3ccc(O)cc3)nc2n1 [Compound 160, 1-[3-(4-Hydroxy-phenyl)-pyrido[2,3-b]pyrazin-6-yl]-3-(4-phenyl-butyl)-urea]
Hct116
  EC50: 420 nM
Erk2
  IC50: 1 nM
other
  melting point: 233 to 235 °C

## O=C(NCCCCc1ccccc1)Nc1ccc2ncc(N3CCOCC3)nc2n1 [Compound 176, 1-(3-Morpholin-4-yl-pyrido[2,3-b]pyrazin-6-yl)-3-(4-phenyl-butyl)-urea]
Erk2
  IC50: 6 nM
other
  melting point: 200 to 202 °C

## CC(CCCc1ccccc1)NC(=O)Nc1ccc2ncc(-c3cnn(C)c3)nc2n1 (stereo not drawn) [Compound 164, 1-(1-Methyl-4-phenyl-butyl)-3-[3-(1-methyl-1H-pyrazol-4-yl)-pyrido[2,3-b]pyrazin-6-yl]-urea]
Hct116
  EC50: 557 nM
Erk2
  IC50: 2 nM
other
  melting point: 204 to 208 °C

## COc1c(CO)cccc1-c1cnc2ccc(NC(=O)N[C@H](C)CCCc3ccccc3)nc2n1 [Compound 158, 1-[3-(3-Hydroxymethyl-2-methoxy-phenyl)-pyrido[2,3-b]pyrazin-6-yl]-3-((R)-1-methyl-4-phenyl-butyl)-urea]
Erk2
  IC50: 1 nM
other
  melting point: 168 to 170 °C

## Cc1n[nH]c(C)c1-c1cnc2ccc(NC(=O)N[C@H](C)CCCc3ccccc3)nc2n1 [Compound 177, 1-[3-(3,5-Dimethyl-1H-pyrazol-4-yl)-pyrido[2,3-b]pyrazin-6-yl]-3-((R)-1-methyl-4-phenyl-butyl)-urea]
Erk2
  IC50: 6 nM
other
  melting point: 266 to 269 °C

## C[C@H](CCCc1ccccc1)NC(=O)Nc1ccc2ncc(N3CCCC3)nc2n1 [Compound 173, 1-((R)-1-Methyl-4-phenyl-butyl)-3-(3-pyrrolidin-1-yl-pyrido[2,3-b]pyrazin-6-yl)-urea]
Erk2
  IC50: 5 nM
other
  melting point: 187 to 190 °C

## Cn1cc(-c2cnc3ccc(NC(=O)NCCCC(C)(C)c4ccccc4)nc3n2)cn1 [Compound 169, 1-(4-Methyl-4-phenyl-pentyl)-3-[3-(1-methyl-1H-pyrazol-4-yl)-pyrido[2,3-b]pyrazin-6-yl]-urea]
Hct116
  EC50: 563 nM
Erk2
  IC50: 3 nM
other
  melting point: 208 to 210 °C

## O=C(NCCCCc1ccccc1)Nc1ccc2ncc(-c3ccc(OP(=O)(O)O)cc3)nc2n1 [Compound 165, Phosphoric acid mono-(4-{6-[3-(4-phenyl-butyl)-ureido]-pyrido[2,3-b]pyrazin-3-yl}-phenyl) ester]
Hct116
  EC50: 3190 nM
Erk2
  IC50: 3 nM
other
  melting point: 202 °C

## CCn1cc(-c2cnc3ccc(NC(=O)NCCCCc4ccccc4)nc3n2)cn1 [Compound 108, 1-[3-(1-Ethyl-1H-pyrazol-4-yl)-pyrido[2,3-b]pyrazin-6-yl]-3-(4-phenyl-butyl)-urea]
Erk2
  IC50: 4 nM
other
  melting point: 207 to 208 °C

## COc1ccccc1-c1cnc2ccc(NC(=O)N[C@H](C)CCCc3ccccc3)nc2n1 [Compound 179, 1-[3-(2-Methoxy-phenyl)-pyrido[2,3-b]pyrazin-6-yl]-3-((R)-1-methyl-4-phenyl-butyl)-urea]
Erk2
  IC50: 6 nM
other
  melting point: 137 to 138 °C

## C[C@H](CCCc1ccccc1)NC(=O)Nc1ccc2ncc(-c3ccncc3)nc2n1 [Compound 157, 1-((R)-1-Methyl-4-phenyl-butyl)-3-(3-pyridin-4-yl-pyrido[2,3-b]pyrazin-6-yl)-urea]
Erk2
  IC50: 2 nM
other
  melting point: 223 to 226 °C

## O=C(NCCCCc1ccccc1)Nc1ccc2ncc(-c3cccc(C(=O)O)c3)nc2n1 [Compound 198, 3-{6-[3-(4-Phenyl-butyl)-ureido]-pyrido[2,3-b]pyrazin-3-yl}-benzoic acid]
Erk2
  IC50: 3 nM
other
  melting point: 254 to 256 °C

## CCCn1cc(-c2cnc3ccc(NC(=O)N[C@H](C)CCCc4ccccc4)nc3n2)cn1 [Compound 170, 1-((R)-1-Methyl-4-phenyl-butyl)-3-[3-(1-propyl-1H-pyrazol-4-yl)-pyrido[2,3-b]pyrazin-6-yl]-urea]
Hct116
  EC50: 149 nM
Erk2
  IC50: 4 nM
other
  melting point: 185 to 188 °C

## O=C(NCCCCc1ccccc1)Nc1ccc2ncc(-c3ccc(OCCOCCO)cc3)nc2n1 [Compound 201, 1-(3-{4-[2-(2-Hydroxy-ethoxy)-ethoxy]-phenyl}-pyrido[2,3-b]pyrazin-6-yl)-3-(4-phenyl-butyl)-urea]
Hct116
  EC50: 888 nM
Erk2
  IC50: 39 nM
other
  melting point: 192 to 194 °C

## COc1ccc(-c2cnc3ccc(NC(=O)NCCCCc4ccccc4)nc3n2)cc1OC [Compound 178, 1-[3-(3,4-Dimethoxy-phenyl)-pyrido[2,3-b]pyrazin-6-yl]-3-(4-phenyl-butyl)-urea]
Erk2
  IC50: 6 nM
other
  melting point: 210 to 211 °C

## C[C@H](CCCc1ccccc1)NC(=O)Nc1ccc2ncc(-c3ccc(CO)cc3)nc2n1 [Compound 167, 1-[3-(4-Hydroxymethyl-phenyl)-pyrido[2,3-b]pyrazin-6-yl]-3-((R)-1-methyl-4-phenyl-butyl)-urea]
Erk2
  IC50: 3 nM
other
  melting point: 187 to 190 °C

## C[C@H](CCCc1ccccc1)NC(=O)Nc1ccc2ncc(-c3cnn(CCN4CCOCC4)c3)nc2n1 [Compound 168, 1-((R)-1-Methyl-4-phenyl-butyl)-3-{3-[1-(2-morpholin-4-yl-ethyl)-1H-pyrazol-4-yl]-pyrido[2,3-b]pyrazin-6-yl}-urea]
Hct116
  EC50: 903 nM
Erk2
  IC50: 3 nM

## C[C@H](CCCc1ccccc1)NC(=O)Nc1ccc2ncc(N3CCOCC3)nc2n1 [Compound 166, 1-((R)-1-Methyl-4-phenyl-butyl)-3-(3-morpholin-4-yl-pyrido[2,3-b]pyrazin-6-yl)-urea]
Erk2
  IC50: 3 nM
other
  melting point: 201 to 203 °C

## N[C@@H](Cc1ccc(-c2cnc3ccc(NC(=O)NCCCCc4ccccc4)nc3n2)cc1)C(=O)O [Compound 197, (S)-2-Amino-3-(4-{6-[3-(4-phenyl-butyl)-ureido]-pyrido[2,3-b]pyrazin-3-yl}-phenyl)-propionic acid]
Erk2
  IC50: 5 nM
other
  melting point: 230 to 232 °C

## C[C@H](CCCc1ccccc1)NC(=O)Nc1ccc2ncc(-c3cn[nH]c3)nc2n1 [Compound 171, 1-((R)-1-Methyl-4-phenyl-butyl)-3-[3-(1H-pyrazol-4-yl)-pyrido[2,3-b]pyrazin-6-yl]-urea]
Erk2
  IC50: 4 nM
other
  melting point: 274 to 276 °C
